Where a name gives a salt, the structure may show the parent alone.
target: MCH receptor (Homo sapiens, UniProt Q99705); assay: High throughput functional screening FLIPR/FDSS6000: inhibition of MCH-evoked intracellular Ca2+ changes; type: cell-based; details: antagonist activity, 50 nM of MCH, FLIPR or FDSS; read-out: IC50
Method in brief: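 In a kinetic calcium-flux format, compounds were tested at various concentrations against 50 nM MCH. Fluo4-loaded cells expressing a constitutively active, non-endogenous receptor were imaged at 488/530 nm for 290 s after agonist addition.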

Q: With `CN(C)c1nc(N[C@H]2CC[C@@H](CNC(=O)Nc3c(Cl)cccc3Cl)CC2)nc2ccccc12` [Example 3, 1-(2,6-Dichloro-phenyl)-3-[cis-4-(4-dimethylamino-quinazolin-2-)ylamino)-cyclohexylmethyl]-urea hydrochloride] as the compound, how does the IC50 read?
A: 4.9 nM

same assay, conditions: class by percent of control at 10^-7 M or IC50

Q: For `CN(C)c1nc(N[C@H]2CC[C@@H](NC(=S)Nc3ccccc3C(F)(F)F)CC2)nc2ccccc12` [compound 208], which class is on record?
A: 3 (Class 3: The value of percent of control at 10^−7 M was more than 60% or the value of IC50 was more than 200 nM.)

Q: With `CN(C)c1nc(N[C@H]2CC[C@@H](CNC(=S)Nc3ccc(Oc4ccc([N+](=O)[O-])cc4)cc3)CC2)nc2ccccc12` [compound 740] as the compound, how does the class read?
A: 3 (Class 3: The value of percent of control at 10^−7 M was more than 60% or the value of IC50 was more than 200 nM.)

Q: For `CN(C)c1nc(N[C@H]2CC[C@@H](CNC(=S)NCc3ccccc3Cl)CC2)nc2ccccc12` [compound 678], which class is on record?
A: 3 (Class 3: The value of percent of control at 10^−7 M was more than 60% or the value of IC50 was more than 200 nM.)

Q: For `CC(C)c1ccc(NC(=O)NC[C@H]2CC[C@@H](Nc3nc(N(C)C)c4ccccc4n3)CC2)cc1` [compound 440], which class is on record?
A: 3 (Class 3: The value of percent of control at 10^−7 M was more than 60% or the value of IC50 was more than 200 nM.)

Q: `CN(C)c1nc(N[C@H]2CC[C@@H](NC(=S)NCCN3CCCCC3)CC2)nc2ccccc12` [compound 395] was tested. Which class did it give?
A: 3 (Class 3: The value of percent of control at 10^−7 M was more than 60% or the value of IC50 was more than 200 nM.)

Q: For `CN(C)c1nc(N[C@H]2CC[C@@H](NC(=S)Nc3ccc(OC(F)F)cc3)CC2)nc2ccccc12` [compound 229, N-[4-(difluoromethoxy)phenyl]-N′-(cis-4-{[4-(dimethylamino)quinazolin-2-yl]amino}cyclohexyl)thiourea], which class is on record?
A: 2 (Class 2: The value of percent of control at 10^−7 M was from 40% to 60% or the value of IC50 was from 50 nM to 200 nM.)

Q: `Cc1ccc(CCNC(=S)N[C@H]2CC[C@@H](Nc3nc(N(C)C)c4ccccc4n3)CC2)cc1` [compound 322] was tested. Which class did it give?
A: 3 (Class 3: The value of percent of control at 10^−7 M was more than 60% or the value of IC50 was more than 200 nM.)

Q: Which class does the source give for `CN(C)c1nc(N[C@H]2CC[C@@H](CNC(=S)NCc3ccc(Cl)cc3)CC2)nc2ccccc12` [compound 695] here?
A: 3 (Class 3: The value of percent of control at 10^−7 M was more than 60% or the value of IC50 was more than 200 nM.)

Q: `Cc1cc(Br)ccc1NC(=S)N[C@H]1CC[C@@H](Nc2nc(N(C)C)c3ccccc3n2)CC1` [compound 267] was tested. Which class did it give?
A: 1 (Class 1: The value of percent of control at 10^−7 M was less than 40% or the value of IC50 was less than 50 nM.)

Q: For `COc1cc(NC(=S)NC[C@H]2CC[C@@H](Nc3nc(N(C)C)c4ccccc4n3)CC2)cc(OC)c1` [compound 683], which class is on record?
A: 3 (Class 3: The value of percent of control at 10^−7 M was more than 60% or the value of IC50 was more than 200 nM.)

Q: For `CN(C)c1nc(N[C@H]2CC[C@@H](CNC(=S)NC3CCCCC3)CC2)nc2ccccc12` [compound 585], which class is on record?
A: 3 (Class 3: The value of percent of control at 10^−7 M was more than 60% or the value of IC50 was more than 200 nM.)

Q: Which class does the source give for `CN(C)c1nc(N[C@H]2CC[C@@H](NC(=S)NCc3ccc(Cl)c(Cl)c3)CC2)nc2ccccc12` [compound 258] here?
A: 3 (Class 3: The value of percent of control at 10^−7 M was more than 60% or the value of IC50 was more than 200 nM.)

Q: How did the class turn out when `COc1cccc(CNC(=S)NC[C@H]2CC[C@@H](Nc3nc(N(C)C)c4ccccc4n3)CC2)c1OC` [compound 716] was run?
A: 2 (Class 2: The value of percent of control at 10^−7 M was from 40% to 60% or the value of IC50 was from 50 nM to 200 nM.)

Q: `CCCCNC(=O)NC[C@H]1CC[C@@H](Nc2nc(N(C)C)c3ccccc3n2)CC1` [compound 414, N-butyl-N′-[(cis-4-{[4-(dimethylamino)quinazolin-2-yl]amino}cyclohexyl)methyl]urea] was tested. Which class did it give?
A: 2 (Class 2: The value of percent of control at 10^−7 M was from 40% to 60% or the value of IC50 was from 50 nM to 200 nM.)

Q: For `CN(C)c1ccc(NC(=O)N[C@H]2CC[C@@H](Nc3nc(N(C)C)c4ccccc4n3)CC2)cc1` [compound 351], which class is on record?
A: 3 (Class 3: The value of percent of control at 10^−7 M was more than 60% or the value of IC50 was more than 200 nM.)

Q: With `COc1ccc([N+](=O)[O-])cc1NC(=S)N[C@H]1CC[C@@H](Nc2nc(N(C)C)c3ccccc3n2)CC1` [compound 301] as the compound, how does the class read?
A: 3 (Class 3: The value of percent of control at 10^−7 M was more than 60% or the value of IC50 was more than 200 nM.)

Q: `COc1ccc(CCNC(=S)N[C@H]2CC[C@@H](Nc3nc(N(C)C)c4ccccc4n3)CC2)cc1OC` [compound 241] was tested. Which class did it give?
A: 3 (Class 3: The value of percent of control at 10^−7 M was more than 60% or the value of IC50 was more than 200 nM.)

Q: How did the class turn out when `CN(C)c1nc(N[C@H]2CC[C@@H](NC(=S)NCCN3CCOCC3)CC2)nc2ccccc12` [compound 388] was run?
A: 3 (Class 3: The value of percent of control at 10^−7 M was more than 60% or the value of IC50 was more than 200 nM.)

Q: Which class does the source give for `CN(C)c1nc(N[C@H]2CC[C@@H](CNC(=O)Nc3ccc(F)cc3[N+](=O)[O-])CC2)nc2ccccc12` [compound 551, N-[(cis-4-{[4-(dimethylamino)quinazolin-2-yl]amino}cyclohexyl)methyl]-N′-(4-fluoro-2-nitrophenyl)urea] here?
A: 2 (Class 2: The value of percent of control at 10^−7 M was from 40% to 60% or the value of IC50 was from 50 nM to 200 nM.)

Q: For `CN(C)c1nc(N[C@H]2CC[C@@H](CNC(=S)Nc3cc(C(F)(F)F)cc(C(F)(F)F)c3)CC2)nc2ccccc12` [compound 579], which class is on record?
A: 3 (Class 3: The value of percent of control at 10^−7 M was more than 60% or the value of IC50 was more than 200 nM.)

Q: `CN(C)c1nc(N[C@H]2CC[C@@H](CNC(=S)Nc3cc(C(F)(F)F)ccc3Cl)CC2)nc2ccccc12` [compound 677] was tested. Which class did it give?
A: 3 (Class 3: The value of percent of control at 10^−7 M was more than 60% or the value of IC50 was more than 200 nM.)

Q: With `CN(C)c1nc(N[C@H]2CC[C@@H](NC(=S)NC3C[C@@H]4CC[C@H]3C4)CC2)nc2ccccc12` (stereo partly drawn) [compound 239] as the compound, how does the class read?
A: 2 (Class 2: The value of percent of control at 10^−7 M was from 40% to 60% or the value of IC50 was from 50 nM to 200 nM.)

same assay, conditions: class by percent of control at 10^-7 M or by IC50; read-out: class

Q: How did the IC50 turn out when `CN(C)c1nc(N[C@H]2CC[C@@H](CNC(=S)NCC3CC3)CC2)nc2ccccc12` [compound 800] was run?
A: 50 to 200 nM

Q: How did the IC50 turn out when `CN(C)c1nc(N[C@H]2CC[C@@H](NC(=S)Nc3ccc(Cl)c(Cl)c3)CC2)nc2ccccc12` [compound 170] was run?
A: > 200 nM

Q: For `CN(C)c1nc(N[C@H]2CC[C@@H](NC(=O)Nc3ccccc3Cl)CC2)nc2ccccc12` [compound 18, N-(2-chlorophenyl)-N′-(cis-4-{[4-(dimethylamino)quinazolin-2-yl]amino}cyclohexyl)urea], which IC50 is on record?
A: < 50 nM

Q: For `CN(C)c1nc(N[C@H]2CC[C@@H](NC(=S)NC3CCCCC3)CC2)nc2ccccc12` [compound 161, N-cyclohexyl-N′-(cis-4-{[4-(dimethylamino)quinazolin-2-yl]amino}cyclohexyl)thiourea], which IC50 is on record?
A: 50 to 200 nM

Q: For `CN(C)c1nc(N[C@H]2CC[C@@H](NC(=S)Nc3cc(C(F)(F)F)cc(C(F)(F)F)c3)CC2)nc2ccccc12` [compound 155], which IC50 is on record?
A: > 200 nM

Q: Which IC50 does the source give for `COc1cc(NC(=O)N[C@H]2CC[C@@H](Nc3nc(N(C)C)c4ccccc4n3)CC2)cc(OC)c1` [compound 126] here?
A: 50 to 200 nM

Q: `CN(C)c1nc(N[C@H]2CC[C@@H](CNC(=S)NC3CC4C=CC3C4)CC2)nc2ccccc12` (relative stereo) [compound 799, N-bicyclo[2.2.1]hept-5-en-2-yl-N′-[(cis-4-{[4-(dimethylamino)quinazolin-2-yl]amino}cyclohexyl)methyl]thiourea] was tested. Which IC50 did it give?
A: 50 to 200 nM

Q: With `Cc1ccccc1CNC(=O)N[C@H]1CC[C@@H](Nc2nc(N(C)C)c3ccccc3n2)CC1` [compound 111, N-(cis-4-{[4-(dimethylamino)quinazolin-2-yl]amino}cyclohexyl)-N′-(2-methylbenzyl)urea] as the compound, how does the IC50 read?
A: < 50 nM

Q: Which IC50 does the source give for `CN(C)c1nc(N[C@H]2CC[C@@H](NC(=O)OCCOCc3ccccc3)CC2)nc2ccccc12` [compound 846] here?
A: 50 to 200 nM

Q: Which IC50 does the source give for `CCNC(=O)N[C@H]1CC[C@@H](Nc2nc(N(C)C)c3ccccc3n2)CC1` [compound 32] here?
A: > 200 nM

Q: With `CC(NC(=O)NC1CCC(Nc2nc(N(C)C)c3ccccc3n2)CC1)c1cccc2ccccc12` (stereo not drawn) [compound 67, 1-[4-(4-Dimethylamino-quinazolin-2-ylamino)-cyclohexyl]-3-(1-napthalen-1-yl-ethyl)-urea] as the compound, how does the IC50 read?
A: 50 to 200 nM

Q: For `CN(C)c1nc(N[C@H]2CC[C@@H](CNC(=S)NC3CC4CCC3C4)CC2)nc2ccccc12` (relative stereo) [compound 798], which IC50 is on record?
A: 50 to 200 nM

Q: `CN(C)c1nc(N[C@H]2CC[C@@H](NC(=O)NCc3cccc(F)c3)CC2)nc2ccccc12` [compound 134, N-(cis-4-{[4-(dimethylamino)quinazolin-2-yl]amino}cyclohexyl)-N′-(3-fluorobenzyl)urea] was tested. Which IC50 did it give?
A: 50 to 200 nM

same assay, conditions: class by percent of control at 10^−7 M or by IC50; read-out: class

Q: Which IC50 does the source give for `CN(C)c1nc(N[C@H]2CC[C@@H](C(=O)NCc3ccccc3)CC2)nc2ccccc12` [Example 1135, cis-N-benzyl-4-{[4-(dimethylamino)quinazolin-2-yl]amino}cyclohexanecarboxamide] here?
A: < 50 nM

Q: Which IC50 does the source give for `CN(C)c1nc(N[C@H]2CC[C@@H](C(=O)NCc3ccc(F)cc3F)CC2)nc2cc(F)c(F)cc12` [Example 997, cis-N-(2,4-difluorobenzyl)-4-{[4-(dimethylamino)-6,7-difluoroquinazolin-2-yl]amino}cyclohexanecarboxamide] here?
A: > 200 nM

Q: Which IC50 does the source give for `CN(C)c1nc(N[C@H]2CC[C@@H](NC(=O)c3ccc(Oc4ccc(F)c(Cl)c4)nc3)CC2)nc2ccccc12` [Example 1070, 6-(3-chloro-4-fluorophenoxy)-N-(cis-4-{[4-(dimethylamino)quinazolin-2-yl]amino}cyclohexyl)nicotinamide] here?
A: 50 to 200 nM
